Test results taken from patent US20180186796A1, “COMPOUNDS AND USES THEREOF” (LEAD DISCOVERY SIENA S.R.L., priority 2014, published 2018).
Read-outs that look alike come from different tables or passages of the source.

Legend:
SH-SY5Y cells [1] = assay: Spheroid growth assay (SH-SY5Y); type: cell-based; conditions: Homo sapiens; SH-SY5Y Neuroblastoma cell spheroid; read-out: Cellular Data (IC50, μM) SH-SY5Y
Procedure: The in vitro antitumoral action of inhibitors was evaluated by neuroblastoma spheroid assay. The SH-SY5Y cell line was utilized as cell model of human neuroblastoma. Cells were purchased from American Type Culture Collection (ATCC, Manassas, Va., USA) and were cultured in DMEM medium supplemented with 10% Fetal Bovine Serum. IBIDI angiogenesis micro-slides (IBIDI GmbH) coated with growth factor reduced Matrigel (BD, Bioscience) and allowed to polymerize for 30 minutes. SH-SY5Y cells were seeded in a 96-multiwell plate in the presence or not (CTR) of inhibitors. […] The size of cellular spheres, in terms of area and diameter, was determined using an Image Pro-plus v 4.5 analysis system considering 5 random fields/treatment (400× magnification).
Antitumoral effect was also tested by spheroid formation assay.

Recombinant human Src = molecular target: T1, Recombinant human Src (Homo sapiens, UniProt P12931); assay: Enzymatic assay on isolated Src; type: biochemical; conditions: mean of at least two experiments; read-out: Enzymatic Data (Ki, μM) c-Src
T1 construct: purchased Upstate (Lake Placid, N.Y.)
Text: Recombinant human Src was purchased from Upstate (Lake Placid, N.Y.).

[2] = PAMPA, intestinal (GI) permeability
[3] = Microsomal stability assay; conditions: percentage of unmodified drug, Table 8
SH-SY5Y cells [4] = conditions: previously reported (ref 20); read-out: antiproliferative effect on SH-SY5Y NB cells (IC50); cited from earlier work
[5] = system: Fyn mediated phosphorylation of residue Tyr18 in Tau protein; assay: Aβ42 induced Tyr18-Tau phosphorylation in differentiated SH-SY5Y cells; type: cell-based, human
Procedure: The neuroblastoma cell line SH-SY5Y was cultured in media obtained by mixing equal volume of MEM and HAM F12 supplemented with 15% fetal calf serum (FCS, Australian origin, Lonza), 100 U/ml penicillin, 100 μg/ml streptomycin and 2 mM L-glutamine (all from Euroclone) at 37° C. in humidified air with 5% CO2. The medium was changed every 48 hours. Cells were split at about 80% confluence and never cultured beyond passage 20. Cell differentiation was achieved by pre-treating for 5 days the SH-SY5Y cells with media containing 1% FCS and 10 μM retinoic acid (RA, Sigma Aldrich). Subsequently cells were treated for other 7 days in media with no serum and supplemented with 50 ng/ml of human recombinant brain derived neurotrophic factor (BDNF, Peprotech), 10 ng/ml human recombinant beta nerve growth factor (NGF, Peprotech), 10 ng/ml neuregulin 1 beta 2 protein (NRG, Abcam) and 9.35 μg/ml vitamin D3 (Sigma Aldrich). To confirm full neuronal differentiation, the expression of mature isoforms of Tau were checked. Differentiated cells were treated for 1.5, 3 and 6 hours with media containing 10 μM Aβ42 oligomer/protofibrils and N2 supplement (Life Technologies), in the presence or in the absence of Fyn inhibitors dissolved in DMSO. As control, cells were treated with media containing equivalent amounts of DMSO.
Briefly, Aβ42 peptides (Sigma) were dissolved in 1,1,1,3,3,3-hexafluoro-2-propanol and lyophilized to completely remove the solvent. Lyophilized Aβ42 peptides were reconstituted in DMSO to a working concentration of 10 mM, diluted 1:100 using HAM F12 (without phenol red and glutammine), vortexed for 15 sec and incubated 24 hours at 4° C. A042 oligomer/protofibrils were visualized by SDS-PAGE and silver staining.

K562 cells = assay: Antiproliferative activity on human cell line K562; type: cell-based
Procedure: In vitro experiments were carried out using the human Chronic Myelogeneous Leukemia cell line K562. Cells were purchased from American Type Culture Collection (ATCC, Manassas, Va., USA) and were cultured in RPMI medium supplemented with 10% Foetal Bovine Serum. […] Cell number and vitality were evaluated using the automatic cell counter NucleoCounteri (Chemometec, Denmark). Results from the NucleoCounter represented either total or non-viable cell concentration, depending on the sample preparation indicated by manufacturer.
In vitro experiments were carried out using the human Chronic Myelogeneous Leukemia cell line K562. Cells were purchased from American Type Culture Collection (ATCC, Manassas, Va., USA) and were cultured in RPMI medium supplemented with 10% Foetal Bovine Serum. […] Cell number and vitality were evaluated using the automatic cell counter NucleoCounter® (Chemometec, Denmark). Results from the NucleoCounter represented either total or non-viable cell concentration, depending on the sample preparation indicated by manufacturer.

human normal fibroblasts = assay: Toxicity in human normal fibroblasts; type: cell-based
recombinant Fyn = recombinant Fyn (Homo sapiens, UniProt P06241); assay: Enzymatic assay on isolated Fyn kinase
Chain of recombinant Fyn (P06241 whole entry, looked up): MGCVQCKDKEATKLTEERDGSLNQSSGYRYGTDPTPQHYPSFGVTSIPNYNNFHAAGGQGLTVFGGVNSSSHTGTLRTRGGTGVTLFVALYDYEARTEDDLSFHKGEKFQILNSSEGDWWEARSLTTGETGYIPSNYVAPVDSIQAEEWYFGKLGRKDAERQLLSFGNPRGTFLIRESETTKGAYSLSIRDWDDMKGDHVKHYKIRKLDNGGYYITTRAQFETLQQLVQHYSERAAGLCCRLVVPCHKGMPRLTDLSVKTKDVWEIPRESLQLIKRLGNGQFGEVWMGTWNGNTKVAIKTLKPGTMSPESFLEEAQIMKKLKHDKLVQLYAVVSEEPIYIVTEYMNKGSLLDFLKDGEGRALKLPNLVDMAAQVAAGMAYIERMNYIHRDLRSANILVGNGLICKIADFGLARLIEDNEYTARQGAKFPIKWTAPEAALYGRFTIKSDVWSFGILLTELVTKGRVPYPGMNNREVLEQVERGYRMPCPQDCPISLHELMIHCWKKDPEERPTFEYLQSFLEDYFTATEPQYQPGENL
Procedure: Kinase assays were performed in presence of 200 μM ATP and 100 μM peptide substrate. All inhibition assays were conducted with 0.01 μg active kinase, 0.33 μmol [^γ32P]ATP, 60 mM HEPES-NaOH pH 7.5, 3 μM Na-orthovanadate, 1.2 mM DTT, 50 μg/ml PEG20.0000, 10 mM magnesium acetate, 0.004% NP40 and 10% DMSO in a final volume of 10 μL. Fyn and inhibitors were preincubated in ice for 5 min; after addition of the substrates the reaction was conducted at 30° C. for 10 min. The reaction was stopped by adding 5 μL of 3% phosphoric acid. Aliquots (10 μL) were then transferred into a P30 Filtermat (PerkinElmer), washed five times with 75 mM phosphoric acid and once with acetone for 5 minute. The filter was dried and transferred to a sealable plastic bag, and scintillation cocktail (4 mL) was added. Spotted reactions were read in a MicroBeta Liquid (Perkinelmer) scintillation counter. The ID50 values were obtained according to the following equation:
Ki values toward recombinant Fyn were calculated using the equation:
according to a competitive mechanism of inhibition toward ATP substrate, where [SATP] is the concentration of ATP. Curve fitting was performed with the program GraphPad Prism version 5.00.

T1 sequence (P12931 whole entry): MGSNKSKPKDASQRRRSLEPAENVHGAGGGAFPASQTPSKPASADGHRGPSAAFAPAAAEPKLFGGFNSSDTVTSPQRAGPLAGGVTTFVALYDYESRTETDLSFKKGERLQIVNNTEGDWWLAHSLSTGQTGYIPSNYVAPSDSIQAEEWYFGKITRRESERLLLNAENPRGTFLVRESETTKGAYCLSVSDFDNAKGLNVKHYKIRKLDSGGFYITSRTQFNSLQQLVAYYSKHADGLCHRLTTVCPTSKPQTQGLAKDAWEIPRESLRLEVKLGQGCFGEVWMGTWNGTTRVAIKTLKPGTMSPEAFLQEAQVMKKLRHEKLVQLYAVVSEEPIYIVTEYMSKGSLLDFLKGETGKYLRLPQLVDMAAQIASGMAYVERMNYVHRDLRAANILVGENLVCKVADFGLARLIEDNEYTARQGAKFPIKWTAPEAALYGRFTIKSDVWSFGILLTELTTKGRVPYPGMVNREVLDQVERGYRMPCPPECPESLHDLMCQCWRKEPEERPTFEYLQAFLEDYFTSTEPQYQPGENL

**Q.** With `Fc1ccccc1CNc1nc(SCCN2CCOCC2)nc2c1cnn2CCc1ccccc1` as the compound, how does the IC50 (SH-SY5Y cells [1]) read?
**A.** Its IC50 is 63 µM.

**Q.** What about the Ki (Recombinant human Src) of the same compound?
**A.** Its Ki is 0.17 µM.

**Q.** What does the source list for `CSc1nc(Nc2cccc(Cl)c2)c2cnn(CCc3ccccc3)c2n1` [Si214, N-(3-chlorophenyl)-6-(methylthio)-1-phenethyl-1H-pyrazolo[3,4-d]pyrimidin-4-amine]?
**A.** PAMPA GI ([2]; Gastrointestinal PAMPA, Table 8): 0 10^−6 cm · sec^−1; PAMPA GI (MR %) ([2]; Membrane Retention, GI): (78.0) %; Metabolic Stab. % [3]: 99.0%; IC50 (SH-SY5Y cells [4]): 80 nM; PAMPA BBB (MR %) (PAMPA, BBB permeability; Membrane Retention, BBB): (55.7) %; Papp at 5 h, 0.5 mM (PAMPA, BBB permeability; PAMPA, pH 7.4): 1.48 ×10⁻⁶ cm/s

**Q.** What does the source list for `Nc1ncnc2c1c(-c1ccc(Cl)cc1)nn2CC(Cl)c1ccccc1` (stereo not shown) [Si308, 3-(4-Chlorophenyl)-1-(2-chloro-2-phenylethyl)-1H-pyrazolo[3,4-d]pyrimidin-4-amine]?
**A.** duration of inhibitory activity on Tau phosphorylation ([5]; after compound administration): effective up to six hours; Aβ42 induced Tyr18-Tau phosphorylation ([5]; dose dependent): significantly affected; IC50 for cell viability K562 (K562 cells): submicromolar range; IC50 (K562 cells; Homo sapiens, K562, read-out: Cellular Data (IC50, μM) K562): 0.56 ± 0.01 µM; cell toxicity in human normal fibroblasts (human normal fibroblasts): did not showed any sign of cell toxicity; Ki (recombinant Fyn): 95 nM; Ki (recombinant Fyn; read-out: Ki Fyn): 70 nM; melting point: 150 to 151 °C
